# Where two headings read alike, the source gives them in different places.
# Assays:
# HT-29 cells [1] = experiment: Fluorescent microscopy: binding of rhodamine-labeled CA IX conjugates to HT-29 cells; format: cell-based, human; settings: 1 hour at 37° C.; alone or plus 100-fold excess CA IX inhibitor; confocal microscopy
# Protocol: Fluorescent conjugates were incubated with HT-29 cells in the presence or absence of 100-fold excess unlabeled ligand. After washing, white light and fluorescent microscopy were used to visualize binding.
# a. HT-29 cells (10^5) were seeded into chambered coverglass plates and allowed to grow to confluence over 48-72 hr. Spent medium was replaced with 0.5 mL of fresh medium containing 0.5% bovine serum albumin and various concentrations of the dye conjugate (L1-Rhodamine, L2-Rhodamine or L3-Rhodamine) alone or the dye conjugate plus 100-fold excess CA IX inhibitor L1, L2 or L3, where appropriate. After incubation for 1 hour at 37° C., cells were rinsed twice with 1 mL of incubation solution to remove unbound fluorescence and 0.5 ml of fresh incubation medium was added to the wells. Images were acquired using a confocal microscopy (FV 1000, Olympus).
# [2] = test system: HCT-116, HT-29, RCC4 and SK-RC-38 human cancer cell lines; experiment: Fluorescent microscopy: binding of L2-Rhodamine to CA IX expressing cell lines; format: cell-based
# Protocol: After washing, white light and fluorescent microscopy were used to visualize binding.
# b. HCT-116, HT-29, RCC4 and SK-RC-38 human cancer cell lines (10^5) were seeded into chambered coverglass plates and allowed to grow to confluence over 48-72 hr. […] After incubation for 1 hour at 37° C., cells were rinsed with incubation solution (2×1.0 mL) to remove unbound conjugate then washed with PBS (1×1.0 mL). Images were acquired using confocal microscopy (FV 1000, Olympus). […] Additionally, the punctate appearance in several of the cell lines is indicative of a rapid internalization of the bound conjugate.
# HT-29 xenograft tumors = settings: for relative average radioactive intensity in the tumor: 10 nmol tail vein, kidneys shielded
# Protocol: Whole animal images were taken 4 hours post-injection. […] The percentage of the injected dose per gram of tissue was determined and plotted. Error bars represent standard deviation. (□) Competition; (▪) L2-PEG36-EC20. […] Whole animal images were taken 9 hours post-injection. […] The percentage of the injected dose per gram of tissue was determined and plotted. Error bars represent standard deviation. (□) Competition; (▪) L2-PEG36-EC20. […] Whole animal images were taken 24 hours post-injection. […] The percentage of the injected dose per gram of tissue was determined and plotted. Error bars represent standard deviation. (□) Competition; (▪) L2-PEG36-EC20. […] At various times, animals were sacrificed by CO2 asphyxiation. […] Three mice bearing HT-29 xenografts were administered 10 nmol of conjugate via tail vein injection while an additional three mice also received 100-fold excess unconjugated inhibitor. A single mouse from each of the two groups was sacrificed for whole animal imaging and tissue/organ biodistribution analysis at 4, 9 and 24 hours post injection.
# HT-29 cells [3] = experiment: 99mTc conjugates binding to HT-29 cells (apparent KD, gamma counting); set-up: species or system human; settings: for Kd: 99mTc-bound conjugate, 1 h at 37° C., read-out: Binding Affinity (apparent KD)
# Protocol: HT-29 cells (150,000 cells/well in 500 μL) were seeded into 24-well Falcon plates and allowed to form monolayers over 48 h. […] After incubating for 1 h at 37° C., cells were rinsed twice with 1 mL of medium and 1 mL of tris buffer. After dissolving in 0.5 mL of 0.25 M NaOH (aq), cells were transferred into individual γ-counter tubes and radioactivity was counted using a γ-counter (Packard, Packard Instrument Company). Apparent KD was calculated by plotting bound radioactivity versus the concentration of radiotracer using GraphPad Prism 4.
# HT-29 cells [4] = format: cell-based, human; settings: for IC50: 2 h exposure, additional 66 h in fresh medium, read-out: IC50 (3H-thymidine incorporation)
# Protocol: After washing, the cells were incubated for […] and their viability was determined via ^3H-thymidine uptake.
# HT-29 cells were seeded on amine-coated 24-well plates and allowed to form monolayers. The spent medium in each well was replaced with fresh medium (0.5 mL) containing various concentrations of Tubulysin B or L2-Tubulysin B in the presence or absence of 100-fold excess CA IX inhibitor L2. After incubating for 2 h at 37° C., cells were rinsed 3 times with fresh medium and then incubated an additional 66 h at 37° C. in fresh medium. Spent medium in each well was again replaced with fresh medium (0.5 mL) containing ^3H-thymidine (1 μCi/ml) and the cells were incubated for an additional 4 h. After washing the cells 3 times with medium, they were dissolved in 0.5 mL of 0.25 M NaOH. Thymidine incorporation was then determined by counting cell-associated radioactivity using a scintillation counter (Packard, Packard Instrument Company). The IC50 value was derived from a plot of the percent of ^3H-thymidine incorporation versus log concentration using Graph Pad Prism 4 and TableCurve 2D software.
# HT29 subcutaneous tumors = experiment: In vivo xenograft tumor efficacy of L2-Tubulysin B; set-up: species or system mice; settings: for tumor growth: thrice weekly for 3 weeks
# Protocol: Once tumors reached a volume of ˜100 mm^3, mice were randomized into various treatment groups (n=3 for each IP group). L2-Tubulysin B (2 μmol/kg) was administered intraperitoneally in the presence or absence of 100-fold excess CA IX ligand L2 every other day for 9 doses. Tumor volume and weight were measured every other day. Error bars represent standard error of the mean. FIG. 10A: (●) PBS Control, (▴) L2-Tubulysin B, (□) Competition. FIG. 10B: (●) PBS Control, (▴) L2-Tubulysin B, (□) Competition.
# Once tumors reached a volume of ˜100 mm^3, mice were randomized into various treatment groups (n=5 for each IV group). CA IX-Tubulysin B ([…]) was administered via tail vein injection in the presence or absence of 100-fold excess CA IX ligand every other day for 9 doses. Tumor volume and weight were measured every other day. Error bars represent standard error of the mean. FIG. 11A: (●) PBS Control, (▴) L2-Tubulysin B, (□) Competition. FIG. 11B: (●) PBS Control, (▴) L2-Tubulysin B, (□) Competition.
# In vivo xenograft tumor efficacy of L2-Tubulysin B. HT29 cells (5.0×10^6) were injected into the shoulders of 5-6 week old female nu/nu mice. Tumors were measured in two perpendicular directions thrice weekly with vernier calipers and their volumes were calculated as 0.5×L×W^2, where L is the longest axis (in millimeters), and W is the axis perpendicular to L (in millimeters). Dosing of L2-Tubulysin B in the presence or absence of 100-fold excess CA IX inhibitor L2 was initiated when the subcutaneous tumors reached ˜100 mm^3 in volume. Dosing solutions were prepared in saline and filtered through a 0.22 μm filter. Solutions were administered via tail vein injection or intraperitoneally. Each mouse received 2 μmol/kg L2-Tubulysin B per injection. Injections were given thrice weekly for 3 weeks and the mice were weighed concurrently.
# Maximum tolerated dose = format: in vivo, mice; settings: for Euthanized (mice) / Healthy (mice) / Sick (mice): thrice weekly tail vein, three mice per group
# Protocol: Maximum tolerated dose. Various concentrations of L2-Tubulysin B were administered to male nu/nu mice thrice weekly via tail vein injection. Visibly sick mice were recorded and if necessary euthanized before the end of the experiment. […] Therefore, a dose of 2 μmol/kg was used for further in vivo efficacy studies.
structure (smiles),measurement,setting,value
CN(C)c1ccc2c(-c3ccc(C(=O)NCCCCCNC(=O)CN(CCN(CC(=O)O)CC(=O)Nc4ccc(S(N)(=O)=O)cc4)CC(=O)Nc4ccc(S(N)(=O)=O)cc4)cc3C(=O)O)c3ccc(=[N+](C)C)cc-3oc2c1 [Conjugate L2-Rhodamine],binding to HT-29 cells and competition by excess unconjugated inhibitor,HT-29 cells [1],bound the cells and were competed in the presence of excess unconjugated inhibitor
same,binding in the presence of competing unconjugated CA IX inhibitor,[2]; competing unconjugated CA IX inhibitor as printed (method: 100-fold excess L2),essentially no binding was observed
same,binding to cell lines,"[2]; dye conjugate alone, 1 hour at 37° C., confocal microscopy",binding is observed in every cell line tested
CN(C)c1ccc2c(-c3ccc(C(=O)NCCOCCOCCOCCOCCC(=O)Nc4cccc(NC(=O)Nc5ccc(S(N)(=O)=O)cc5)c4)cc3C(=O)O)c3ccc(=[N+](C)C)cc-3oc2c1 [Conjugate L3-Rhodamine],binding to HT-29 cells and competition by excess unconjugated inhibitor,HT-29 cells [1],bound the cells and were competed in the presence of excess unconjugated inhibitor
N[C@H](CNC(=O)CCOCCOCCOCCOCCOCCOCCOCCOCCOCCOCCOCCOCCOCCOCCOCCOCCOCCOCCOCCOCCOCCOCCOCCOCCOCCOCCOCCOCCOCCOCCOCCOCCOCCOCCOCCOCCNC(=O)CN(CCN(CC(=O)O)CC(=O)Nc1ccc(S(N)(=O)=O)cc1)CC(=O)Nc1ccc(S(N)(=O)=O)cc1)C(=O)N[C@@H](CC(=O)O)C(=O)NC[C@H](CS)C(=O)O [L2-PEG36-EC20],tumor intensity with concurrent 100-fold excess unconjugated inhibitor,"HT-29 xenograft tumors; 4, 9 and 24 hours post injection",did not exhibit any intensity in the tumor
same,relative average radioactive intensity in the tumor,HT-29 xenograft tumors; 4 hours post injection,~1300
same,relative average radioactive intensity in the tumor,HT-29 xenograft tumors; 9 hours post injection,750
same,relative average radioactive intensity in the tumor,HT-29 xenograft tumors; 24 hours post injection,350
same,Kd,HT-29 cells [3],57 nM
CCCC(=O)OCN(C(=O)[C@@H](NC(=O)[C@H]1CCCCN1C)[C@@H](C)CC)[C@H](C[C@@H](OC(C)=O)c1nc(C(=O)N[C@@H](Cc2ccc(O)cc2)C[C@H](C)C(=O)NNC(=O)OCCSSC[C@H](NC(=O)[C@H](CC(=O)O)NC(=O)[C@@H](N)CNC(=O)CCOCCOCCOCCOCCOCCOCCOCCOCCOCCOCCOCCOCCNC(=O)CN(CCN(CC(=O)O)CC(=O)Nc2ccc(S(N)(=O)=O)cc2)CC(=O)Nc2ccc(S(N)(=O)=O)cc2)C(=O)O)cs1)C(C)C [L2-Tubulysin B],IC50,HT-29 cells [4],4.4 nM
same,cytotoxic effect with 100-fold excess of the unconjugated inhibitor,HT-29 cells [4]; HT-29 cells,completely abrogated
same,tumor growth with 100-fold excess CA IX inhibitor L2,HT29 subcutaneous tumors; 2 μmol/kg,growth of the tumors was similar to the control group
same,tumor growth,HT29 subcutaneous tumors; 2 μmol/kg intraperitoneally,essentially halted tumor growth
same,tumor growth,HT29 subcutaneous tumors; 2 μmol/kg via tail vein injection,essentially halted tumor growth
same,gross toxicity,"HT29 subcutaneous tumors; 2 μmol/kg, both routes",no gross toxicity was observed
same,loss of weight,"HT29 subcutaneous tumors; 2 μmol/kg, both routes",no loss of weight was observed
same,adverse events,Maximum tolerated dose; 1 μmol/kg,no adverse events were identified
same,Euthanized (mice),Maximum tolerated dose; 1 μmol/kg,0
same,Healthy (mice),Maximum tolerated dose; 1 μmol/kg,3
same,Sick (mice),Maximum tolerated dose; 1 μmol/kg,0
same,Euthanized (mice),Maximum tolerated dose; 3 μmol/kg,0
same,Healthy (mice),Maximum tolerated dose; 3 μmol/kg,2
same,Sick (mice),Maximum tolerated dose; 3 μmol/kg,1
same,Euthanized (mice),Maximum tolerated dose; 5 μmol/kg,2
same,Healthy (mice),Maximum tolerated dose; 5 μmol/kg,0
same,Sick (mice),Maximum tolerated dose; 5 μmol/kg,1
same,signs of toxicity,Maximum tolerated dose; highest dose,all mice showed signs of toxicity
N[C@H](CNC(=O)CCOCCOCCOCCOCCOCCOCCOCCOCCOCCOCCOCCOCCNC(=O)CCC(=O)Nc1cccc(NC(=O)Nc2ccc(S(N)(=O)=O)cc2)c1)C(=O)N[C@@H](CC(=O)O)C(=O)NC[C@H](CS)C(=O)O [L3-PEG12-EC20],Kd,HT-29 cells [3],146 nM
same,decrease of binding by addition of the PEG12-EC20,HT-29 cells [3]; binding affinity of conjugate versus reported Ki of original ligand,162 fold
"CCCC(=O)OCN(C(=O)[C@@H](NC(=O)[C@H]1CCCCN1C)[C@@H](C)CC)[C@H](C[C@@H](OC(C)=O)c1nc(C(=O)N[C@@H](Cc2ccc(O)cc2)C[C@H](C)C(=O)O)cs1)C(C)C [Tubulysin B, reference compound]",IC50,HT-29 cells [4],0.08 nM

# Source: patent US11925696B2, “Carbonic anhydrase IX targeting agents and methods” (priority 2016, dated 2024)
